{"source": "patent US20070098735A1", "about": "“Methods for the Elimination of Pathogens and Other Particulate Agents” (priority 2005, published 2007)", "key": {"[1]": {"test_system": "lipid raft (LR) microdomain of the macrophage plasma membrane", "experiment": "Binding of exogenous HRP-labeled HSP70 to purified lipid raft fractions", "design": "species or system murine", "conditions": "HRP-labeled HSP70 100 μg/ml; with ganglioside GM1; Brij98 or Triton X-100", "description": "Purification of lipid rafts. Lipid rafts were purified as DRMs (detergent resistant membrane) using non-ionic detergents following sucrose gradient centrifugation. […] After incubation, cells were washed 3× with PBS and lysed with 2 ml MES (4-morpholinoethanesulfonic acid) buffered saline (MBS; 150 mM NaCl, 20 mM MES, pH 6.5, […] and 5 mM iodoacetamide) containing 0.5% Triton X-100 or 1% for 30 minutes on ice or 7 minutes at 37° C. respectively. The cells were mixed with an equal volume of 90% sucrose in MEB buffer (150 mM NaCl, 20 mM MES [pH 6.5]) and placed at the bottom of the centrifuge tube. […] Fractions of 1 ml each were collected from the bottom of tube and each fraction was analyzed by SDS-PAGE and immunoblotting.\nBriefly, RAW264.7 macrophages were treated with exogenous HRP-labeled HSP70 (100 μg/ml) or were left untreated for 60 minutes and washed with PBS three times to remove free HSPs. […] These fractions obtained (light: LR and heavy: non-LR) were then analyzed using immunoblotting to detect HRP activity of HSP70-HRP complexes or tested for the presence of an LR-associated ganglioside GM1 by using HRP-cholera toxin B. Similarly, these fractions were tested for the amount of cholesterol using (Biovision Research Products, CA). […]"}, "[2]": {"test_system": "full thickness surgical wounds on the dorsum of BALB/cJ mice", "experiment": "Closure of full thickness surgical wounds, percent wound closure", "assay_type": "in vivo"}}}
{"substance": "HSP70: heat shock protein purified from murine livers, prepared as a complex with endogenous peptide", "values": [{"measurement": "localisation of exogenously administered HSP70", "setting": "[1]", "value": "co-localized on the LR-microdomain of the macrophage plasma membrane"}, {"measurement": "wound closure compared to controls", "setting": "[2]; 5 μg/dose and 50 μg/dose, day 2", "value": "significant wound closure"}, {"measurement": "wound healing at Day 11", "setting": "[2]; 30 μg/dose SC on days 0, 2, 4 and 6", "value": "completely healed"}, {"measurement": "dose with the most significant difference in wound closure", "setting": "[2]; doses 5, 30, 50 μg/dose tested", "value": 30, "unit": "μg/dose"}]}
